Like-named read-outs stand apart in the source and are kept apart here.
What was measured:
hD2R = assay: Pairwise bias factor calculation; assay type: cell-based, human; details: for Go-protein bias over β-arrestin: bias expressed as fold; for Bias factor GoA−βarrestin / Bias factor Gi1–GoA activation / Bias factor cAMP−βarrestin: logarithmic scale, relative to quinpirole, 30 min data; for Bias factor Gi1–GoA activation: negative = GoA bias
[1] = target: hD2R (D2SR), Gi1 activation (Homo sapiens, UniProt P14416); assay: cell-based; assay type: cell-based; details: for Emax: HEK293, read-out: Gi1 Activation Emax; for Gi1 Activation Emax: 30 min, normalized to quinpirole Emax; for Gi1 Activation Emax / EC50: hD2R in HEK293 cells; for EC50: Gi1 Activation EC50, 30 min
Chain of hD2R (D2SR), Gi1 activation (P14416 1-414 isoform P14416-2): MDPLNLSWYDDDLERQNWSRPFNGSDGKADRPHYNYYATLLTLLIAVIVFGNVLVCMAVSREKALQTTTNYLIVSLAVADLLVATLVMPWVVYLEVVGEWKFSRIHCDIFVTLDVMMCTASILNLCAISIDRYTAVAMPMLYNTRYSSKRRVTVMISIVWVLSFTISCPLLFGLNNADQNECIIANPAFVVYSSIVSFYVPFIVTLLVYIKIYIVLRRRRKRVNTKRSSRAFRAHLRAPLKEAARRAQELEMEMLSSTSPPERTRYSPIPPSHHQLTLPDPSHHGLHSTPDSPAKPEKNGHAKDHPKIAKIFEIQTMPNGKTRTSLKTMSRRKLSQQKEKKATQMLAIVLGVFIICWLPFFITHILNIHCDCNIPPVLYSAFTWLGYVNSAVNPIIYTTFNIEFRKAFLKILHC
Chain of hD2R (D2SR), Gi1 activation (P63096 2-354 partner limits assumed): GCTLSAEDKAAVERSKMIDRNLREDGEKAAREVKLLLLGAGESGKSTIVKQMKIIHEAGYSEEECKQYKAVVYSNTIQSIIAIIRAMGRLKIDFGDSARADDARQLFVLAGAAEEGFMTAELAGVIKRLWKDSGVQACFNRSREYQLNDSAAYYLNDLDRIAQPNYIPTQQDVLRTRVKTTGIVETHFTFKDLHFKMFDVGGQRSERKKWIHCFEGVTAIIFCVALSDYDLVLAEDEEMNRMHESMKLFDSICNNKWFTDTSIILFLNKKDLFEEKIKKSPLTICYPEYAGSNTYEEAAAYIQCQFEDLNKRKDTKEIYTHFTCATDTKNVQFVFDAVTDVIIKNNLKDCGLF
Chain of hD2R (D2SR), Gi1 activation (P62873 2-340 partner limits assumed): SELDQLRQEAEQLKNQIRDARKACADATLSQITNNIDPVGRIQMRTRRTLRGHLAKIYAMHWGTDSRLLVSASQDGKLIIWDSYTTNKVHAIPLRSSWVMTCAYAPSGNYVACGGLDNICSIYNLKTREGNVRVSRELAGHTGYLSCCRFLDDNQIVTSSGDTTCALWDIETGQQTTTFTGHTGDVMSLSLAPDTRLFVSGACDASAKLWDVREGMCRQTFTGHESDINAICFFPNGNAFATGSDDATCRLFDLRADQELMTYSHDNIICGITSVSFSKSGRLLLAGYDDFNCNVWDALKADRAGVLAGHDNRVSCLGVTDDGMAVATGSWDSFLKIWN
Chain of hD2R (D2SR), Gi1 activation (P59768 2-68 partner limits assumed): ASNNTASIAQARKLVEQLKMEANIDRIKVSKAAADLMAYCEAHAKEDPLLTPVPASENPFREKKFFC

[2] = target: hD2R (D2SR), β-arrestin 2 recruitment (Homo sapiens, UniProt P14416); assay: cell-based; assay type: cell-based; details: for Emax: HEK293, read-out: βArrestin2 Recruitment Emax
Chain of hD2R (D2SR), β-arrestin 2 recruitment (P14416 1-414 isoform P14416-2): as the sequence (P14416 1-414 isoform P14416-2) above
Chain of hD2R (D2SR), β-arrestin 2 recruitment (P32121 whole entry partner): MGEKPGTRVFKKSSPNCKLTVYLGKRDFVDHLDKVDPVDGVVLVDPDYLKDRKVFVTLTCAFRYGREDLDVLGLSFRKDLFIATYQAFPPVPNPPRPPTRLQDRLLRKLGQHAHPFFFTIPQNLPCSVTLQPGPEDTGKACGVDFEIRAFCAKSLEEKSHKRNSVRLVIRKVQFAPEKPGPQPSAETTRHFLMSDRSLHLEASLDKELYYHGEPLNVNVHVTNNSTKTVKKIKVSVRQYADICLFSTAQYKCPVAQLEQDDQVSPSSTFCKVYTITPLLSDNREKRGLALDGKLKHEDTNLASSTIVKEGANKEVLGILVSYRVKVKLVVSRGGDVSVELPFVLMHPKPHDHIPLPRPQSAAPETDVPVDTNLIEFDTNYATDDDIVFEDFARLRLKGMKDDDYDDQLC

[3] = target: hD2R (D2SR), cAMP inhibition (Homo sapiens, UniProt P14416); assay: cell-based; details: for Emax: HEK293, read-out: cAMP Inhibition Emax; for EC50: cAMP Inhibition EC50, 30 min, hD2R in HEK293 cells
Chain of hD2R (D2SR), cAMP inhibition (P14416 1-414 isoform P14416-2): as the sequence (P14416 1-414 isoform P14416-2) above

[4] = target: hD2R (D2SR), GoA activation (Homo sapiens, UniProt P14416); assay: cell-based; details: for EC50: GoA Activation EC50, 30 min, hD2R in HEK293 cells; for Emax: HEK293, read-out: GoA Activation Emax
Chain of hD2R (D2SR), GoA activation (P14416 1-414 isoform P14416-2): as above
Chain of hD2R (D2SR), GoA activation (P09471 2-354 partner limits assumed): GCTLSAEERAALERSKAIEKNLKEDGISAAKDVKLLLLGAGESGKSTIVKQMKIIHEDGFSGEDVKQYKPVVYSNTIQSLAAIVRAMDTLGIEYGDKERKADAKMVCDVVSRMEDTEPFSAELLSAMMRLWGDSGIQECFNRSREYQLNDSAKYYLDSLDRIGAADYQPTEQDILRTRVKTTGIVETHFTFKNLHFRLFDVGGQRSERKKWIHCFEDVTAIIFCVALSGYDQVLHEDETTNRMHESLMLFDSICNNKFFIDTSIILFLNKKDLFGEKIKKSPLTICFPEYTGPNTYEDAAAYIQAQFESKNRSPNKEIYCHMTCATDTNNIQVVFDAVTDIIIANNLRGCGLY
Chain of hD2R (D2SR), GoA activation (P62873 2-340 partner limits assumed): as the sequence (P62873 2-340 partner limits assumed) above
Chain of hD2R (D2SR), GoA activation (P59768 2-68 partner limits assumed): as the sequence (P59768 2-68 partner limits assumed) above

[5] = system: D2R-expressing dopaminergic neurons in VTA and SNc (GIRK activity); assay type: cell-based, mouse

Structure (SMILES)	Emax [1]	βArrestin2 Recruitment Emax ([2]; 30 min, hD2R in HEK293 cells, normalized to quinpirole Emax)	Emax [3]	EC50 [3]	Gi1 Activation Emax [1]	EC50 [1]	EC50 [4]	Emax [4]	EC50 [2]	Emax [2]	Go-protein bias over β-arrestin (hD2R)	Bias factor GoA−βarrestin (hD2R)	Bias factor Gi1–GoA activation (hD2R)	Bias factor cAMP−βarrestin (hD2R)	ligand-induced change of holding current ([5]; whole cell voltage-clamp, −60 mV, 3 and 30 μM)	ligand-induced change of holding current [5]	effect of D2R antagonist on agonist-induced holding current change [5]
CN(CCCCNC(=O)c1ccc2scnc2c1)[C@@H]1Cc2cccc3[nH]c(=O)n(c23)C1 [Compound 8]	108 ± 7.3%		95.4 ± 4.7%	5.2 ± 1.8 nM	fully efficacious	144 ± 52.6 nM	7.3 ± 3.6 nM	92.1 ± 7.2%	208 ± 173 nM	76.4 ± 20.1%		1.21	–0.44	1.05			
CN(C[C@@H]1C[C@H]1CCNC(=O)c1cc2ccccc2[nH]1)[C@@H]1Cc2cccc3[nH]c(=O)n(c23)C1 [Compound 19]	57.6 ± 4.9%		60.5 ± 1.5%	6 ± 1.1 nM		129 ± 56.3 nM	1 ± 0.5 nM	74 ± 5.4%	80.5 ± 35.7 nM	30.5 ± 2.6%	> 1000 fold	3.44		1.93			
CN(CC[C@@H]1C[C@H]1CNC(=O)c1cc2ccccc2[nH]1)[C@@H]1Cc2cccc3[nH]c(=O)n(c23)C1 [Compound 20]	72.4 ± 4.6%		59.8 ± 1.5%	81.1 ± 13.1 nM		184 ± 63.6 nM	103 ± 28.2 nM	80.3 ± 3.8%	208 ± 85.8 nM	26 ± 2.1%	> 1000 fold	2.50	0.24	1.39			
CN[C@@H]1Cc2cccc3[nH]c(=O)n(c23)C1 [Sumanirole, (R)-5,6-dihydro-5-(methylamino)-4H-imidazo[4,5,1-ij]quinolin-2(1H)-one, reference compound]												0.15	–0.54	–0.10	produced an increase in the holding current		
NCCc1ccc(O)c(O)c1 [dopamine]																produced an increase in the holding current	
CCN1CCCC1CNC(=O)c1cc(S(N)(=O)=O)ccc1OC (stereo not shown) [sulpiride]																	inhibited the change in the holding current induced by either sumanirole or 11

Further lines, with some results ahead:

Emax [1]	βArrestin2 Recruitment Emax ([2]; 30 min, hD2R in HEK293 cells, normalized to quinpirole Emax)	Emax [3]	EC50 [3]	Gi1 Activation Emax [1]	EC50 [1]	EC50 [4]	Emax [4]	EC50 [2]	Emax [2]	Structure (SMILES)	Go-protein bias over β-arrestin (hD2R)	Bias factor GoA−βarrestin (hD2R)	Bias factor Gi1–GoA activation (hD2R)	Bias factor cAMP−βarrestin (hD2R)	ligand-induced change of holding current ([5]; whole cell voltage-clamp, −60 mV, 3 and 30 μM)	ligand-induced change of holding current [5]	effect of D2R antagonist on agonist-induced holding current change [5]
51 ± 4.4%										CN(CCCCNC(=O)c1cc2ccccc2[nH]1)[C@@H]1Cc2cccc3[nH]c(=O)n(c23)C1 [Compound 1]	~30 fold	1.51	–0.98				
8.1 ± 8.2%	low efficacy	58.5 ± 30.2%	22.9 ± 19 nM	low efficacy	39.7 ± 39.7 nM	61.1 ± 48.8 nM	31.9 ± 7%			CC1Cc2ccccc2N1C(=O)c1nc2ccccc2s1 (stereo not shown) [Compound 2, reference compound]							
85.1 ± 8.6%		84 ± 6.2%	79.1 ± 31.7 nM		301 ± 147 nM	117 ± 59 nM	75.5 ± 7.8%	794 ± 711 nM	64.2 ± 25.6%	CN(CCCCNC(=O)c1nc2ccccc2s1)[C@@H]1Cc2cccc3[nH]c(=O)n(c23)C1 [Compound 9]		0.55	0.43	0.56			
